Key:
PIM3 = target: T1, PIM3 (Homo sapiens, UniProt Q86V86); test: Pim-3 kinase enzymatic assay (Caliper LC3000, FAM-Pimtide substrate); type: biochemical; conditions: 55 pM PIM3, 10 μM ATP, 90 minutes; read-out: PIM3 LC3K (Ki)
T1 construct: made in house
Description: (§1) Reaction Buffer contained 10 mM HEPES, pH 7.2, 10 mM MgCl2, 0.01% Tween 20, 2 mM DTT.
(§2) PIM reactions were carried out in a final volume of 10 μL per well in a 384-well plate. […] The separation of product and substrate was optimized by choosing voltages and pressure using Caliper's Optimizer software (Hopkinton, Mass.). The separation conditions used a downstream voltage of −500V, an upstream voltage of −2150V, and a screening pressure of −1.2 psi. […] Substrate conversion was calculated from the electrophoregram using HTS Well Analyzer software (Caliper Life Sciences, Hopkinton, Mass.). Ki values for the test compound were calculated.

BaF3 PIM1 cells = BaF3 PIM1 cells (Homo sapiens, UniProt P11309); test: BaF3 PIM1 cell proliferation (Cell Titer Glo); type: cell-based; conditions: incubated overnight; read-out: Prolif BaF3_PIM1 (IC50)
Description: (§3) BaF3 parental line was obtained from the DSMZ repository. BaF3 lines transfected with PIM1 or PIM2 were generated. Mouse IL-3 was purchased from R&D Systems. G418 was purchased from Clontech. Media for BaF3 parental line contained RPMI, 10% FBS, 2 mM L-Glutamine, 2 ng/mL mIL-3. Media for BaF3 PIM1 & 2 lines contained RPMI, 10% FBS, 2 mM L-Glutamine, […]. Media for MM1.S line contained RPMI, 10% FBS, 2 mM L-Glutamine.
(§4) BaF3 parental cells, BaF3 PIM1 cells, BaF3 PIM2 cells, and MM1.S cells were seeded at 2 k/well, 5 k/well, 5 k/well, and 10 k/well respectively, in a 384-well plate, at 45 μL/well. Test compound was added at 5 μL/well. BaF3 cells (parental and transfected) were incubated overnight, while MM1.S cells were incubated for 72 hours at 37° C., 5% CO2. Cell Titer Glo Reagent (Promega) was added at 50 μL/well, the plates were incubated for 30 minutes, and their luminescence read on an HT Analyst. IC50/EC50 values for the test compound were calculated.

PIM2 = target: T2, PIM2 (Homo sapiens, UniProt Q9P1W9); test: Pim-2 kinase enzymatic assay (Caliper LC3000, FAM-Pimtide substrate); type: biochemical; conditions: 50 pM PIM2, 10 μM ATP, 90 minutes; read-out: PIM2 LC3K (Ki)
T2 construct: made in house
Description: as §1, §2

BaF3 PIM2 cells = BaF3 PIM2 cells (Homo sapiens, UniProt Q9P1W9); test: BaF3 PIM2 cell proliferation (Cell Titer Glo); type: cell-based; conditions: incubated overnight; read-out: Prolif BaF3_PIM2 (IC50)
Description: as §3, §4

MM1.S cells = test: MM1.S cell proliferation, 72 hours (Cell Titer Glo); type: cell-based; conditions: Homo sapiens, 72 hours, read-out: Prolif MM1S ATP (EC50)
Description: as §3, §4

PIM1 = target: T3, PIM1 (Homo sapiens, UniProt P11309); test: Pim-1 kinase enzymatic assay (Caliper LC3000, FAM-Pimtide substrate); type: biochemical; conditions: 20 pM PIM1, 10 μM ATP, 90 minutes; read-out: PIM1 LC3K (Ki)
T3 construct: made in house
Description: as §1, §2

Sequence of BaF3 PIM2 cells (Q9P1W9 whole entry, change not shown): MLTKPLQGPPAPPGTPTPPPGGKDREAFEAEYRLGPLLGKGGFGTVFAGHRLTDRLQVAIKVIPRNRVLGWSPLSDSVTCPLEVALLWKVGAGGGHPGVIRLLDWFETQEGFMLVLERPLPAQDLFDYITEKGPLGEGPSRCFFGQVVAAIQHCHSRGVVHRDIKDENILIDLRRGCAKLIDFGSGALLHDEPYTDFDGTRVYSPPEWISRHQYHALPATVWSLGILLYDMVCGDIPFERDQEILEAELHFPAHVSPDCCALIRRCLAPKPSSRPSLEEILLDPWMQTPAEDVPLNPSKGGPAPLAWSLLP
T2 sequence (Q9P1W9 whole entry): as the sequence (Q9P1W9 whole entry, change not shown) above
Sequence of BaF3 PIM1 cells (P11309 whole entry, change not shown): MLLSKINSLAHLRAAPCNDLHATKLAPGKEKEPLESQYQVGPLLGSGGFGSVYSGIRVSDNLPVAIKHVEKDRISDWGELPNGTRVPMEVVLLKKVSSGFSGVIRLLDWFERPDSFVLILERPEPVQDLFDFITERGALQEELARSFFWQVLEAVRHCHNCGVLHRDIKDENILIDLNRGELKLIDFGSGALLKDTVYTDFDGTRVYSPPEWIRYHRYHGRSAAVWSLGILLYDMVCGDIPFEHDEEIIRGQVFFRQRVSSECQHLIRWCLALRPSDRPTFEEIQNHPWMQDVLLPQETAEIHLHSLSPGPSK
T3 sequence (P11309 whole entry): as the sequence (P11309 whole entry, change not shown) above

Row | Structure (SMILES) | Ki (PIM3) [nM] | GI50 (BaF3 PIM1 cells) [nM] | Ki (PIM2) [nM] | GI50 (BaF3 PIM2 cells) [nM] | EC50 (MM1.S cells) [nM] | Ki (PIM1) [nM]
1 | Nc1sc(-c2ccc(Cl)cc2)nc1C(=O)Nc1cnccc1N1CCC[C@H](N)C1 [Example 12, (S)-5-amino-N-(4-(3-aminopiperidin-1-yl)pyridin-3-yl)-2-(4-chlorophenyl)thiazole-4-carboxamide] | 0.072 | 2300 | 1.06 | 4200 | 6800 | 0.172
2 | Nc1sc(-c2ccccc2OC(F)(F)F)nc1C(=O)Nc1cnccc1N1CCC[C@H](N)C1 [Example 15] | 1.89 | 945 | 16.4 | 3300 | 4400 | 1.93
3 | CC(C)(C)c1nc(C(=O)Nc2cnccc2N2CCC[C@H](N)C2)c(N)s1 [Example 16, (S)-5-amino-N-(4-(3-aminopiperidin-1-yl)pyridin-3-yl)-2-tert-butylthiazole-4-carboxamide] | 2.26 | 926 | 3.83 | > 20000 | 10000 to 20000 | 1.56
4 | Nc1sc(-c2c(F)cccc2F)nc1C(=O)Nc1cnccc1Cl [Example 17, 5-amino-N-(4-chloropyridin-3-yl)-2-(2,6-difluorophenyl)thiazole-4-carboxamide] | 6.81 | > 20000 | 76.5 | > 20000 | > 20000 | 14
5 | CN(C)C(=O)c1ccc(F)c(-c2nc(C(=O)Nc3cnccc3N3CCC[C@H](N)C3)c(N)s2)c1 [Example 18, (S)-5-amino-N-(4-(3-aminopiperidin-1-yl)pyridin-3-yl)-2-(5-(dimethylcarbamoyl)-2-fluorophenyl)thiazole-4-carboxamide] | 0.033 | 257 | 0.596 | 12300 | 767 | 0.096
6 | CN(C)Cc1nc(C(=O)Nc2cnccc2N2CCC[C@H](N)C2)c(N)s1 [Example 21, (S)-5-amino-N-(4-(3-aminopiperidin-1-yl)pyridin-3-yl)-2-((dimethylamino)methyl)thiazole-4-carboxamide] | 138 | > 20000 | 242 | > 20000 | > 20000 | 420
7 | NC(=O)c1cccc(-c2nc(C(=O)Nc3cnccc3N3CCC[C@H](N)C3)c(N)s2)c1 [Example 22, (S)-5-amino-N-(4-(3-aminopiperidin-1-yl)pyridin-3-yl)-2-(3-carbamoylphenyl)thiazole-4-carboxamide] | 0.052 | 520 | 0.495 | > 20000 | 4700 | 0.054
8 | Nc1sc(-c2cc(Cl)ccc2F)nc1C(=O)Nc1cnccc1N1CCC[C@H](N)C1 [Example 23, (S)-5-amino-N-(4-(3-aminopiperidin-1-yl)pyridin-3-yl)-2-(5-chloro-2-fluorophenyl)thiazole-4-carboxamide] | 0.031 | 2500 | 0.153 | 1800 | 137 | 0.034
9 | Nc1sc(-c2c(F)cccc2F)nc1C(=O)Nc1cnccc1N1CCCCC1 [Example 24, 5-amino-2-(2,6-difluorophenyl)-N-(4-(piperidin-1-yl)pyridin-3-yl)thiazole-4-carboxamide] | 1.76 | > 14000 | 16.3 | > 20000 | 20000 | 0.43
10 | CCOc1ccc(F)c(-c2nc(C(=O)Nc3cnccc3N3CCC[C@H](N)C3)c(N)s2)c1F [Example 26, (S)-5-amino-N-(4-(3-aminopiperidin-1-yl)pyridin-3-yl)-2-(3-ethoxy-2,6-difluorophenyl)thiazole-4-carboxamide] | 0.022 | 28.2 | 0.15 | 2400 | 148 | 0.014

Other lines, results leading:

Row | Ki (PIM3) [nM] | GI50 (BaF3 PIM1 cells) [nM] | Ki (PIM2) [nM] | GI50 (BaF3 PIM2 cells) [nM] | EC50 (MM1.S cells) [nM] | Ki (PIM1) [nM] | Structure (SMILES)
11 | 0.05 | 75.7 | 0.248 | 3900 | 558 | 0.04 | CCCOc1ccc(F)c(-c2nc(C(=O)Nc3cnccc3N3CCC[C@H](N)C3)c(N)s2)c1F [Example 27, (S)-5-amino-N-(4-(3-aminopiperidin-1-yl)pyridin-3-yl)-2-(3-propyloxy-2,6-difluorophenyl)thiazole-4-carboxamide]
12 | 0.118 | 135 | 0.434 | 2800 | 1900 | 0.102 | CCCCOc1ccc(F)c(-c2nc(C(=O)Nc3cnccc3N3CCC[C@H](N)C3)c(N)s2)c1F [Example 28, (S)-5-amino-N-(4-(3-aminopiperidin-1-yl)pyridin-3-yl)-2-(3-butyloxy-2,6-difluorophenyl)thiazole-4-carboxamide]
13 | 0.07 | 48.9 | 0.565 | 4300 | 1600 | 0.058 | CC(C)Oc1ccc(F)c(-c2nc(C(=O)Nc3cnccc3N3CCC[C@H](N)C3)c(N)s2)c1F [Example 29, (S)-5-amino-N-(4-(3-aminopiperidin-1-yl)pyridin-3-yl)-2-(3-isopropyloxy-2,6-difluorophenyl)thiazole-4-carboxamide]
14 | 0.033 | 52.2 | 0.429 | > 5000 | 163 | 0.076 | Cc1ccc(-c2nc(C(=O)Nc3cnccc3N3CCC[C@H](N)C3)c(N)s2)cc1 [Example 30, (S)-5-amino-N-(4-(3-aminopiperidin-1-yl)pyridin-3-yl)-2-(4-tolylthiazole)-4-carboxamide]
15 | 0.023 | 66.5 | 0.339 | 2300 | 1300 | 0.0464 | Cc1cccc(-c2nc(C(=O)Nc3cnccc3N3CCC[C@H](N)C3)c(N)s2)c1 [Example 31, (S)-5-amino-N-(4-(3-aminopiperidin-1-yl)pyridin-3-yl)-2-(3-tolylthiazole)-4-carboxamide]
16 | 0.022 | 1700 | 0.127 | > 20000 | 650 | 0.054 | CCNC(=O)Nc1ccc(-c2nc(C(=O)Nc3cnccc3N3CCC[C@H](N)C3)c(N)s2)cc1 [Example 32, (S)-5-amino-N-(4-(3-aminopiperidin-1-yl)pyridin-3-yl)-2-(4-(3-ethylureido)phenyl)thiazole-4-carboxamide]
17 | 0.022 | 19.1 | 0.0957 | > 2500 | 56.8 | 0.012 | COc1cc(F)c(-c2nc(C(=O)Nc3cnccc3N3CCC[C@H](N)C3)c(N)s2)c(F)c1 [Example 34, (S)-5-amino-N-(4-(3-aminopiperidin-1-yl)pyridin-3-yl)-2-(2,6-difluoro-4-methoxyphenyl)thiazole-4-carboxamide]
18 | 1.13 | 29.3 | 5.28 | 2000 | 2300 | 0.709 | COc1ccc(-c2nc(C(=O)Nc3cnccc3N3CCC[C@H](N)C3)c(N)s2)c(F)c1 [Example 35, (S)-5-amino-N-(4-(3-aminopiperidin-1-yl)pyridin-3-yl)-2-(2-fluoro-4-methoxyphenyl)thiazole-4-carboxamide]
19 | 0.143 | 375 | 1.69 | 5100 | 3200 | 0.306 | COc1ccccc1-c1nc(C(=O)Nc2cnccc2N2CCC[C@H](N)C2)c(N)s1 [Example 39, (S)-5-amino-N-(4-(3-aminopiperidin-1-yl)pyridin-3-yl)-2-(2-methoxyphenyl)thiazole-4-carboxamide]
20 | 0.037 | 164 | 0.725 | 6500 | 2500 | 0.129 | Cc1ccccc1-c1nc(C(=O)Nc2cnccc2N2CCC[C@H](N)C2)c(N)s1 [Example 40, (S)-5-amino-N-(4-(3-aminopiperidin-1-yl)pyridin-3-yl)-2-o-tolylthiazole-4-carboxamide]
21 | 0.022 | 69 | 0.208 | 3900 | 2000 | 0.049 | Nc1sc(-c2cc(F)ccc2F)nc1C(=O)Nc1cnccc1N1CCC[C@H](N)C1 [Example 41, (S)-5-amino-N-(4-(3-aminopiperidin-1-yl)pyridin-3-yl)-2-(2,5-difluorophenyl)thiazole-4-carboxamide]

Reference: US8435976B2, “4-substituted pyridin-3-yl-carboxamide compounds and methods of use” (F. Hoffmann-La Roche, priority 2009, dated 2013)
